Test results published in patent US9255295B2, “Method for evaluating the sensitizing potential of a test compound” (IMMUNOSEARCH, priority 2010, dated 2016).

System: genes specific for sensitization (BRAK, CTSS, DAPK2, FABP4, HSP27, IL18, HSP90, IL1R2, TPSAB1, CXCR1, DEFB1, DHFR, EHF, IVL, KRT4, MELANA, NGAL, PDZK1IP1, PI3 …)
Assay: Expression of the other (non-ARE) sensitization-specific genes in EPISKIN reconstructed skin (quantitative RT-PCR);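 as to CTSS NUMBER OF GENES grade: grade scored against expression in the control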;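 as to CXCR1 NUMBER OF GENES grade: grade scored against expression in the control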;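 as to DAPK2 NUMBER OF GENES grade: grade scored against expression in the control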
Type: cell-based, human

O=CC=O [Glyoxal]
BRAK NUMBER OF GENES grade (0.1%): 0 (if this expression is lower, the grade is 0) | CTSS NUMBER OF GENES grade (0.1%): 0 (if this expression is lower, the grade is 0) | CXCR1 NUMBER OF GENES grade (0.1%): 0 (if this expression is lower, the grade is 0) | DAPK2 NUMBER OF GENES grade (0.1%): 0 (if this expression is lower, the grade is 0) | DEFB1 NUMBER OF GENES grade (0.1%): 0 (if this expression is lower, the grade is 0) | DHFR NUMBER OF GENES grade (0.1%): 0 (if this expression is lower, the grade is 0) | EHF NUMBER OF GENES grade (0.1%): 0 (if this expression is lower, the grade is 0) | FABP4 NUMBER OF GENES grade (0.1%): 0 (if this expression is lower, the grade is 0) | HSP27 NUMBER OF GENES grade (0.1%): 0 (if this expression is lower, the grade is 0) | HSP90 NUMBER OF GENES grade (0.1%): 0 (if this expression is lower, the grade is 0) | IL18 NUMBER OF GENES grade (0.1%): 0 (if this expression is lower, the grade is 0) | IVL NUMBER OF GENES grade (0.1%): 0 (if this expression is lower, the grade is 0) | KRT4 NUMBER OF GENES grade (0.1%): 0 (if this expression is lower, the grade is 0) | MELANA NUMBER OF GENES grade (0.1%): 0 (if this expression is lower, the grade is 0) | NGAL NUMBER OF GENES grade (0.1%): 0 (if this expression is lower, the grade is 0) | P13 NUMBER OF GENES grade (0.1%): 0 (if this expression is lower, the grade is 0) | PDZK1iP1 NUMBER OF GENES grade (0.1%): 0 (if this expression is lower, the grade is 0) | SENS >1.3 (number of genes) (0.1%): 0 | SERPINB3 NUMBER OF GENES grade (0.1%): 0 (if this expression is lower, the grade is 0) | TOTAL SENS (number of genes) (0.1%): 0 | BRAK expression (0.1%, compared to the control): 0.6 | CTSS expression (0.1%, compared to the control): 1.0 | CXCR1 expression (0.1%, compared to the control): 1.1 | DAPK2 expression (0.1%, compared to the control): 0.9 | DEFB1 expression (0.1%, compared to the control): 0.8 | DHFR expression (0.1%, compared to the control): 0.9 | EHF expression (0.1%, compared to the control): 0.8 | FABP4 expression (0.1%, compared to the control): 0.4 | HSP27 expression (0.1%, compared to the control): 0.7 | HSP90 expression (0.1%, compared to the control): 1.0 | IL18 expression (0.1%, compared to the control): 0.8 | IVL expression (0.1%, compared to the control): 0.7 | KRT4 expression (0.1%, compared to the control): 0.9 | MELANA expression (0.1%, compared to the control): 0.5 | NGAL expression (0.1%, compared to the control): 0.7 | P13 expression (0.1%, compared to the control): 0.8 | PDZK1iP1 expression (0.1%, compared to the control): 0.9 | SERPINB3 expression (0.1%, compared to the control): 1.0 | BRAK NUMBER OF GENES grade (1%): 0 (if this expression is lower, the grade is 0) | CTSS expression compared to control (1%): 1.3 | CTSS grade (NUMBER OF GENES) (1%): 1 (If the expression is greater than 1.3 compared to the control, a grade of 11s given) | CXCR1 expression compared to control (1%): 1.6 | CXCR1 grade (NUMBER OF GENES) (1%): 1 (If the expression is greater than 1.3 compared to the control, a grade of 11s given) | DAPK2 expression compared to control (1%): 0.9 | DAPK2 grade (NUMBER OF GENES) (1%): 0 (if this expression is lower, the grade is 0) | DEFB1 expression compared to control (1%): 1.4 | DEFB1 grade (NUMBER OF GENES) (1%): 1 (If the expression is greater than 1.3 compared to the control, a grade of 11s given) | DHFR NUMBER OF GENES grade (1%): 0 (if this expression is lower, the grade is 0) | EHF expression compared to control (1%): 0.9 | EHF grade (NUMBER OF GENES) (1%): 0 (if this expression is lower, the grade is 0) | FABP4 expression compared to control (1%): 0.8 | FABP4 grade (NUMBER OF GENES) (1%): 0 (if this expression is lower, the grade is 0) | HSP27 expression compared to control (1%): 0.8 | HSP27 grade (NUMBER OF GENES) (1%): 0 (if this expression is lower, the grade is 0) | HSP90 NUMBER OF GENES grade (1%): 0 (if this expression is lower, the grade is 0) | IL18 NUMBER OF GENES grade (1%): 0 (if this expression is lower, the grade is 0) | IVL expression compared to control (1%): 1.7 | IVL grade (NUMBER OF GENES) (1%): 1 (If the expression is greater than 1.3 compared to the control, a grade of 11s given) | KRT4 NUMBER OF GENES grade (1%): 0 (if this expression is lower, the grade is 0) | MELANA NUMBER OF GENES grade (1%): 0 (if this expression is lower, the grade is 0) | NGAL expression compared to control (1%): 0.6 | NGAL grade (NUMBER OF GENES) (1%): 0 (if this expression is lower, the grade is 0) | P13 expression compared to control (1%): 1.4 | P13 grade (NUMBER OF GENES) (1%): 1 (If the expression is greater than 1.3 compared to the control, a grade of 11s given) | PDZK1iP1 NUMBER OF GENES grade (1%): 0 (if this expression is lower, the grade is 0) | SENS >1.3 (number of genes) (1%): 6 | SERPINB3 NUMBER OF GENES grade (1%): 0 (if this expression is lower, the grade is 0) | TOTAL SENS (number of genes) (1%): 6 | BRAK expression (1%, compared to the control): 0.5 | DHFR expression (1%, compared to the control): 0.9 | HSP90 expression (1%, compared to the control): 1.1 | IL18 expression (1%, compared to the control): 1.0 | KRT4 expression (1%, compared to the control): 0.6 | MELANA expression (1%, compared to the control): 1.1 | PDZK1iP1 expression (1%, compared to the control): 1.0 | SERPINB3 expression (1%, compared to the control): 1.1 | BRAK NUMBER OF GENES grade (10%): 0 (if this expression is lower, the grade is 0) | CTSS expression compared to control (10%): 2.2 | CTSS grade (NUMBER OF GENES) (10%): 1 (If the expression is greater than 1.3 compared to the control, a grade of 11s given) | CXCR1 expression compared to control (10%): 1.8 | CXCR1 grade (NUMBER OF GENES) (10%): 1 (If the expression is greater than 1.3 compared to the control, a grade of 11s given) | DAPK2 expression compared to control (10%): 0.9 | DAPK2 grade (NUMBER OF GENES) (10%): 0 (if this expression is lower, the grade is 0) | DEFB1 expression compared to control (10%): 1.6 | DEFB1 grade (NUMBER OF GENES) (10%): 1 (If the expression is greater than 1.3 compared to the control, a grade of 11s given) | DHFR NUMBER OF GENES grade (10%): 0 (if this expression is lower, the grade is 0) | EHF expression compared to control (10%): 0.9 | EHF grade (NUMBER OF GENES) (10%): 0 (if this expression is lower, the grade is 0) | FABP4 expression compared to control (10%): 0.8 | FABP4 grade (NUMBER OF GENES) (10%): 0 (if this expression is lower, the grade is 0) | HSP27 expression compared to control (10%): 0.8 | HSP27 grade (NUMBER OF GENES) (10%): 0 (if this expression is lower, the grade is 0) | HSP90 NUMBER OF GENES grade (10%): 1 (If the expression is greater than 1.3 compared to the control, a grade of 11s given) | IL18 NUMBER OF GENES grade (10%): 1 (If the expression is greater than 1.3 compared to the control, a grade of 11s given) | IVL expression compared to control (10%): 1.6 | IVL grade (NUMBER OF GENES) (10%): 1 (If the expression is greater than 1.3 compared to the control, a grade of 11s given) | KRT4 NUMBER OF GENES grade (10%): 1 (If the expression is greater than 1.3 compared to the control, a grade of 11s given) | MELANA NUMBER OF GENES grade (10%): 0 (if this expression is lower, the grade is 0) | NGAL expression compared to control (10%): 1.3 | NGAL grade (NUMBER OF GENES) (10%): 1 (If the expression is greater than 1.3 compared to the control, a grade of 11s given) | P13 expression compared to control (10%): 1.3 | P13 grade (NUMBER OF GENES) (10%): 1 (If the expression is greater than 1.3 compared to the control, a grade of 11s given) | PDZK1iP1 NUMBER OF GENES grade (10%): 1 (If the expression is greater than 1.3 compared to the control, a grade of 11s given) | SENS >1.3 (number of genes) (10%): 13 | SERPINB3 NUMBER OF GENES grade (10%): 1 (If the expression is greater than 1.3 compared to the control, a grade of 11s given) | TOTAL SENS (number of genes) (10%): 13 | BRAK expression (10%, compared to the control): 0.5 | DHFR expression (10%, compared to the control): 0.9 | HSP90 expression (10%, compared to the control): 1.5 | IL18 expression (10%, compared to the control): 1.3 | KRT4 expression (10%, compared to the control): 1.4 | MELANA expression (10%, compared to the control): 1.1 | PDZK1iP1 expression (10%, compared to the control): 1.4 | SERPINB3 expression (10%, compared to the control): 1.3 | BRAK NUMBER OF GENES grade (50%): 0 (if this expression is lower, the grade is 0) | CTSS expression compared to control (50%): 2.7 | CTSS grade (NUMBER OF GENES) (50%): 1 (If the expression is greater than 1.3 compared to the control, a grade of 11s given) | CXCR1 expression compared to control (50%): 2.7 | CXCR1 grade (NUMBER OF GENES) (50%): 1 (If the expression is greater than 1.3 compared to the control, a grade of 11s given) | DAPK2 expression compared to control (50%): 0.9 | DAPK2 grade (NUMBER OF GENES) (50%): 0 (if this expression is lower, the grade is 0) | DEFB1 expression compared to control (50%): 1.6 | DEFB1 grade (NUMBER OF GENES) (50%): 1 (If the expression is greater than 1.3 compared to the control, a grade of 11s given) | DHFR NUMBER OF GENES grade (50%): 0 (if this expression is lower, the grade is 0) | EHF expression compared to control (50%): 0.9 | EHF grade (NUMBER OF GENES) (50%): 0 (if this expression is lower, the grade is 0) | FABP4 expression compared to control (50%): 0.8 | FABP4 grade (NUMBER OF GENES) (50%): 0 (if this expression is lower, the grade is 0) | HSP27 expression compared to control (50%): 0.8 | HSP27 grade (NUMBER OF GENES) (50%): 0 (if this expression is lower, the grade is 0) | HSP90 NUMBER OF GENES grade (50%): 1 (If the expression is greater than 1.3 compared to the control, a grade of 11s given) | IL18 NUMBER OF GENES grade (50%): 0 (if this expression is lower, the grade is 0) | IVL expression compared to control (50%): 1.5 | IVL grade (NUMBER OF GENES) (50%): 1 (If the expression is greater than 1.3 compared to the control, a grade of 11s given) | KRT4 NUMBER OF GENES grade (50%): 0 (if this expression is lower, the grade is 0) | MELANA NUMBER OF GENES grade (50%): 0 (if this expression is lower, the grade is 0) | NGAL expression compared to control (50%): 0.6 | NGAL grade (NUMBER OF GENES) (50%): 0 (if this expression is lower, the grade is 0) | P13 expression compared to control (50%): 1.4 | P13 grade (NUMBER OF GENES) (50%): 1 (If the expression is greater than 1.3 compared to the control, a grade of 11s given) | PDZK1iP1 NUMBER OF GENES grade (50%): 0 (if this expression is lower, the grade is 0) | SENS >1.3 (number of genes) (50%): 8 | SERPINB3 NUMBER OF GENES grade (50%): 1 (If the expression is greater than 1.3 compared to the control, a grade of 11s given) | TOTAL SENS (number of genes) (50%): 8 | BRAK expression (50%, compared to the control): 0.5 | DHFR expression (50%, compared to the control): 0.9 | HSP90 expression (50%, compared to the control): 2.0 | IL18 expression (50%, compared to the control): 1.0 | KRT4 expression (50%, compared to the control): 0.6 | MELANA expression (50%, compared to the control): 1.1 | PDZK1iP1 expression (50%, compared to the control): 1.0 | SERPINB3 expression (50%, compared to the control): 1.7
